Measurements from the supplement of paper PMC7214452.

How the values were obtained:
Assay in all cases: normalized area under the dose-response curve (viability relative to DMSO control) (fraction); higher = less sensitive (more viable cells)
Settings in all cases: exposure time not given
[1] = tested on: AMO1 (cancer type: MM)
Protocol: (§1)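 25 myeloma and 15 non-Hodgkin lymphoma cell lines were exposed to each of 76 drugs as 7-point log dilutions (0.01 nM–10 µM) in duplicate. Viability was read with CellTiter-Glo and normalised to DMSO (0.1%) and staurosporine (10 µM) plate controls. Normalised AUC was calculated by the trapezoidal method relative to the negative control.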

[2] = tested on: EJM (cancer type: MM)
Protocol: as §1

[3] = tested on: FR4 (cancer type: MM)
Protocol: as §1

[4] = tested on: Granta-519 (cancer type: Mantle)
Protocol: as §1

[5] = tested on: HuT 78 (cancer type: TCL)
Protocol: as §1

[6] = tested on: JJN3 (cancer type: MM)
Protocol: as §1

[7] = tested on: JVM2 (cancer type: Mantle)
Protocol: as §1

[8] = tested on: JeKo-1 (cancer type: Mantle)
Protocol: as §1

[9] = tested on: KMS11 (cancer type: MM)
Protocol: as §1

[10] = tested on: KMS12PE (cancer type: MM)
Protocol: as §1

[11] = tested on: KMS18 (cancer type: MM)
Protocol: as §1

[12] = tested on: KMS26 (cancer type: MM)
Protocol: as §1

[13] = tested on: KMS28BM (cancer type: MM)
Protocol: as §1

[14] = tested on: KMS28PE (cancer type: MM)
Protocol: as §1

[15] = tested on: KMS34 (cancer type: MM)
Protocol: as §1

[16] = tested on: Karpas-299 (cancer type: TCL)
Protocol: as §1

[17] = tested on: L363 (cancer type: MM)
Protocol: as §1

[18] = tested on: LP1 (cancer type: MM)
Protocol: as §1

[19] = tested on: MM1.R (cancer type: MM)
Protocol: as §1

[20] = tested on: MM1.S (cancer type: MM)
Protocol: as §1

[21] = tested on: Mino (cancer type: Mantle)
Protocol: as §1

[22] = tested on: My-La (cancer type: TCL)
Protocol: as §1

[23] = tested on: NCI-H929 (cancer type: MM)
Protocol: as §1

[24] = tested on: OCI-LY1 (cancer type: DLBCL)
Protocol: as §1

[25] = tested on: OCI-LY19 (cancer type: DLBCL)
Protocol: as §1

[26] = tested on: OCI-LY3 (cancer type: DLBCL)
Protocol: as §1

[27] = tested on: OCI-MY5 (cancer type: MM)
Protocol: as §1

[28] = tested on: OCI-MY5/CRBN (cancer type: MM)
Protocol: as §1

[29] = tested on: OCI-MY5/Vec (cancer type: MM)
Protocol: as §1

[30] = tested on: OCI-MY7 (cancer type: MM)
Protocol: as §1

[31] = tested on: OPM2 (cancer type: MM)
Protocol: as §1

[32] = tested on: RPMI 8226 (cancer type: MM)
Protocol: as §1

[33] = tested on: SKMM2 (cancer type: MM)
Protocol: as §1

[34] = tested on: SR-786 (cancer type: TCL)
Protocol: as §1

[35] = tested on: SU-DHL1 (cancer type: TCL)
Protocol: as §1

[36] = tested on: SU-DHL2 (cancer type: DLBCL)
Protocol: as §1

[37] = tested on: SU-DHL6 (cancer type: DLBCL)
Protocol: as §1

[38] = tested on: Se-Ax (cancer type: TCL)
Protocol: as §1

[39] = tested on: U266 (cancer type: MM)
Protocol: as §1

[40] = tested on: XG2 (cancer type: MM)
Protocol: as §1

| SMILES | normalized area under the dose-response curve [1] | normalized area under the dose-response curve [2] | normalized area under the dose-response curve [3] | normalized area under the dose-response curve [4] | normalized area under the dose-response curve [5] | normalized area under the dose-response curve [6] | normalized area under the dose-response curve [7] | normalized area under the dose-response curve [8] | normalized area under the dose-response curve [9] | normalized area under the dose-response curve [10] | normalized area under the dose-response curve [11] | normalized area under the dose-response curve [12] | normalized area under the dose-response curve [13] | normalized area under the dose-response curve [14] | normalized area under the dose-response curve [15] | normalized area under the dose-response curve [16] | normalized area under the dose-response curve [17] | normalized area under the dose-response curve [18] | normalized area under the dose-response curve [19] | normalized area under the dose-response curve [20] | normalized area under the dose-response curve [21] | normalized area under the dose-response curve [22] | normalized area under the dose-response curve [23] | normalized area under the dose-response curve [24] | normalized area under the dose-response curve [25] | normalized area under the dose-response curve [26] | normalized area under the dose-response curve [27] | normalized area under the dose-response curve [28] | normalized area under the dose-response curve [29] | normalized area under the dose-response curve [30] | normalized area under the dose-response curve [31] | normalized area under the dose-response curve [32] | normalized area under the dose-response curve [33] | normalized area under the dose-response curve [34] | normalized area under the dose-response curve [35] | normalized area under the dose-response curve [36] | normalized area under the dose-response curve [37] | normalized area under the dose-response curve [38] | normalized area under the dose-response curve [39] | normalized area under the dose-response curve [40] |
| --- | --- | --- | --- | --- | --- | --- | --- | --- | --- | --- | --- | --- | --- | --- | --- | --- | --- | --- | --- | --- | --- | --- | --- | --- | --- | --- | --- | --- | --- | --- | --- | --- | --- | --- | --- | --- | --- | --- | --- | --- |
| C=CC(=O)N1CCC[C@@H](n2nc(-c3ccc(Oc4ccccc4)cc3)c3c(N)ncnc32)C1 [Ibrutinib] | 0.715 | 0.857 | 0.793 | 0.798 | 0.928 | 0.728 | 0.668 | 0.686 | 0.738 | 0.74 | 0.916 | 0.763 | 0.786 | 0.723 | 0.518 | 0.845 | 0.759 | 0.892 | 0.77 | 0.81 | 0.681 | 0.782 | 0.84 | 0.636 | 0.865 | 0.829 | 0.628 | 0.937 | 0.88 | 1 | 0.676 | 0.765 | 0.922 | 0.825 | 0.746 | 0.903 | 0.852 | 0.739 | 0.726 | 0.863 |
| COc1cc(C(=O)O)ccc1NC(=O)[C@@H]1N[C@@H](CC(C)(C)C)[C@](C#N)(c2ccc(Cl)cc2F)[C@H]1c1cccc(Cl)c1F [Idasanutlin] | 0.732 | 0.858 | 0.837 | 0.873 | 0.825 | 0.88 | 0.832 | 0.852 | 0.868 | 0.96 | 0.831 | 0.798 | 0.935 | 0.922 | 0.751 | 0.86 | 0.834 | 0.955 | 0.84 | 0.81 | 0.928 | 0.937 | 0.79 | 0.959 | 0.92 | 0.967 | 0.834 | 0.852 | 0.902 | 0.92 | 0.861 | 0.943 | 0.962 | 0.861 | 0.877 | 0.961 | 0.898 | 0.82 | 0.773 | 0.838 |
| CC[C@H](Nc1ncnc2[nH]cnc12)c1nc2cccc(F)c2c(=O)n1-c1ccccc1 [Idelalisib] | 0.831 | 0.942 | 0.872 | 0.78 | 0.85 | 0.834 | 0.606 | 0.842 | 0.87 | 0.85 | 0.978 | 0.876 | 0.818 | 0.879 | 0.728 | 0.891 | 0.815 | 0.832 | 0.74 | 0.78 | 0.882 | 0.81 | 0.78 | 0.737 | 0.806 | 0.809 | 0.742 | 0.941 | 0.903 | 0.89 | 0.931 | 0.826 | 0.897 | 0.916 | 0.782 | 0.962 | 0.694 | 0.731 | 0.859 | 0.832 |
| Cc1ccc(NC(=O)c2ccc(CN3CCN(C)CC3)cc2)cc1Nc1nccc(-c2cccnc2)n1 [Imatinib] | 0.789 | 0.887 | 0.816 | 0.943 | 0.9 | 0.789 | 0.759 | 0.915 | 0.714 | 0.9 | 0.807 | 0.918 | 0.902 | 0.79 | 0.562 | 0.876 | 0.749 | 0.785 | 0.84 | 0.88 | 0.958 | 0.98 | 0.93 | 1 | 0.928 | 0.935 | 0.793 | 0.892 | 0.804 | 0.93 | 0.752 | 0.885 | 0.926 | 0.934 | 0.774 | 0.943 | 0.92 | 0.79 | 0.783 | 0.839 |
| Nc1cccc2c1CN(C1CCC(=O)NC1=O)C2=O (stereo not given) [Lenalidomide] | 0.799 | 0.836 | 0.852 | 0.891 | 0.828 | 0.822 | 0.657 | 0.874 | 0.758 | 0.74 | 0.805 | 0.785 | 0.819 | 0.899 | 0.662 | 0.875 | 0.785 | 0.847 | 0.68 | 0.66 | 0.897 | 0.944 | 0.74 | 0.825 | 0.758 | 0.802 | 0.786 | 0.928 | 0.999 | 0.78 | 0.846 | 0.915 | 0.874 | 0.992 | 0.812 | 0.785 | 0.847 | 0.709 | 0.858 | 0.861 |
| COc1cc2nccc(Oc3ccc(NC(=O)NC4CC4)c(Cl)c3)c2cc1C(N)=O [Lenvatinib] | 0.963 | 0.97 | 1.02 | 0.948 | 0.866 | 0.897 | 0.723 | 0.938 | 0.814 | 0.94 | 0.977 | 0.884 | 0.877 | 0.877 | 0.912 | 0.885 | 0.88 | 0.863 | 0.85 | 0.88 | 0.97 | 0.94 | 0.92 | 0.936 | 0.87 | 0.931 | 0.84 | 0.944 | 0.949 | 0.92 | 0.892 | 0.918 | 0.943 | 0.953 | 0.909 | 0.937 | 0.964 | 0.883 | 0.992 | 0.905 |
